# From patent US20190203240A1, “METHODS FOR THE PRODUCTION OF RHAMNOSYLATED FLAVONOIDS” (Universitaet Hamburg, priority 2016, published 2019)
# How the values were obtained:
# Assay type in all cases: cell-based
# [1] = test system: NF-κB; experiment: NF-κB activity in NIH3T3-KBF-Luc cells stimulated with TNFα (luciferase); details: +30 ng/ml TNFα
# Description: NIH3T3-KBF-Luc cells were stably transfected with the KBF-Luc plasmid (Sancho (2003) Mol Pharmacol 63:429-438), which contains three copies of NF-κB binding site (from major histocompatibility complex promoter), fused to a minimal simian virus 40 promoter driving the luciferase gene. Cells (1×10^4 for NIH3T3-KBF-Luc) were seeded the day before the assay on 96-well plate. Then the cells were treated with the test substances for 15 min and then stimulated with 30 ng/ml of TNFα. After 6 h, the cells were washed twice with PBS and lysed in 50 μl lysis buffer containing 25 mM Tris-phosphate (pH 7.8), 8 mM MgCl2, 1 mM DTT, 1% Triton X-100, and 7% glycerol during 15 min at RT in a horizontal shaker. Luciferase activity was measured using a GloMax 96 microplate luminometer (Promega) following the instructions of the luciferase assay kit (Promega, Madison, Wis., USA). […] The experiments for each concentration of the test items were done in triplicate wells.
# [2] = test system: STAT3; experiment: STAT3 activity in HeLa-STAT3-luc cells stimulated with IFN-γ (luciferase); details: +IFNγ 25 U/ml
# Description: HeLa-STAT3-luc cells were stably transfected with the plasmid 4×M67 pTATA TK-Luc. Cells (20×10^3 cells/ml) were seeded 96-well plate the day before the assay. Then the cells were treated with the test substances for […] and then stimulated with IFN-γ 25 IU/ml. After 6 h, the cells were washed twice with PBS and lysed in […] lysis buffer containing 25 mM Tris-phosphate (pH 7.8), 8 mM MgCl2, 1 mM DTT, 1% Triton X-100, and 7% glycerol during […] at RT in a horizontal shaker. Luciferase activity was measured using GloMax 96 microplate luminometer (Promega) following the instructions of the luciferase assay kit (Promega, Madison, Wis., USA). […] The experiments for each concentration of the test items were done in triplicate wells.
# [3] = test system: HaCaT cells; experiment: Glucose uptake (2-NBDG) in HaCaT keratinocytes; details: +2NBDG 50 μM, 24 h
# Description: HaCaT cells (5×10^4) were seeded in 96-well black plates and incubated for 24 h. Then, medium was removed and the cells cultivated in OptiMEM, labeled with 50 μM 2-NBDG (2-[N-(7-nitrobenz-2-oxa-1,3-diazol-4-yl) amino]-2-deoxy-D-glucose and treated with the test substances or the positive control, Rosiglitazone, for 24 h. Medium was removed and the wells were carefully washed with PBS and incubated in PBS (100 μl/well). Finally the fluorescence was measured using the Incucyte FLR software, the data were analyzed by the total green object integrated intensity (GCU×μm2×Well) of the imaging system IncuCyte HD (Essen BioScience). The fluorescence of Rosiglitazone is taken as 100% of glucose uptake, and the glucose uptake was calculated as (% Glucose uptake)=100(T−B)/(R−B), where T (treated) is the fluorescence of test substance-treated cells, B (Basal) is the fluorescence of 2-NBDG cells and […] is the fluorescence of cells treated with Rosiglitazone.
SMILES,% Activation (NF-κB; TNFα = 100%) ([1]; 10 μM) [%],RLU 1 ([1]; 10 μM) [RLU],RLU 2 ([1]; 10 μM) [RLU],RLU 3 ([1]; 10 μM) [RLU],RLU MEAN ([1]; 10 μM) [RLU],RLU specific ([1]; 10 μM) [RLU],% Activation (NF-κB; TNFα = 100%) ([1]; 25 μM) [%],RLU 1 ([1]; 25 μM) [RLU],RLU 2 ([1]; 25 μM) [RLU],RLU 3 ([1]; 25 μM) [RLU],RLU MEAN ([1]; 25 μM) [RLU],RLU specific ([1]; 25 μM) [RLU],% Activation (STAT3; IFNγ = 100%) ([2]; 25 μM) [%],RLU 1 ([2]; 25 μM) [RLU],RLU 2 ([2]; 25 μM) [RLU],RLU 3 ([2]; 25 μM) [RLU],RLU MEAN ([2]; 25 μM) [RLU],RLU specific ([2]; 25 μM) [RLU],RLU 1 ([2]; 50 μM) [RLU],RLU 2 ([2]; 50 μM) [RLU],other results
"COc1ccc(-c2coc3cc(O[C@@H]4O[C@@H](C)[C@H](O)[C@@H](O)[C@H]4O)cc(O[C@@H]4O[C@@H](C)[C@H](O)[C@@H](O)[C@H]4O)c3c2=O)cc1 [BR1, Biochanin A-5,7-di-O-α-L-rhamnoside]",170.3,259120,247590,229500,245403,222040,141.4,211660,208010,203720,207797,184433,110.41,8162,12819,11157,10713,8878,12336,11620,% Activation (STAT3; IFNγ = 100%) ([2]; 50 μM): 126.67%; RLU 3 ([2]; 50 μM): 12104 RLU; RLU MEAN ([2]; 50 μM): 12020 RLU; RLU specific ([2]; 50 μM): 10185 RLU; % Glucose uptake (Rosiglitazone = 100%) ([3]; 25 μM): 44.0%; Mean (fluorescence) ([3]; 25 μM): 597246; Measure 1 (fluorescence) ([3]; 25 μM): 730362; Measure 2 (fluorescence) ([3]; 25 μM): 661244; Measure 3 (fluorescence) ([3]; 25 μM): 400131; RFU specific ([3]; 25 μM): 564160 RFU; % Glucose uptake (Rosiglitazone = 100%) ([3]; 50 μM): 56.4%; Mean (fluorescence) ([3]; 50 μM): 756509; Measure 1 (fluorescence) ([3]; 50 μM): 899548; Measure 2 (fluorescence) ([3]; 50 μM): 626443; Measure 3 (fluorescence) ([3]; 50 μM): 743535; RFU specific ([3]; 50 μM): 723423 RFU
"CC1O[C@@H](Oc2cc(O)cc3oc(-c4ccccc4)cc(=O)c23)C(O)C(O)[C@H]1O (stereo partly drawn) [CR2, Chrysin-5-O-α-L-rhamnoside]",101.7,156600,160140,151070,155937,132573,,170390,179220,163490,171033,147670,,,,,,,,,"activity at 25 µM ([1]; 6 h, 25 μM, read-out: % Activation (NF-κB; TNFα = 100%)): 113%; % Glucose uptake (Rosiglitazone = 100%) ([3]; 25 μM): 47.2%; Mean (fluorescence) ([3]; 25 μM): 416681; Measure 1 (fluorescence) ([3]; 25 μM): 427937; Measure 2 (fluorescence) ([3]; 25 μM): 431593; Measure 3 (fluorescence) ([3]; 25 μM): 390512; RFU specific ([3]; 25 μM): 410367 RFU; % Glucose uptake (Rosiglitazone = 100%) ([3]; 50 μM): 106.5%; Mean (fluorescence) ([3]; 50 μM): 931673; Measure 1 (fluorescence) ([3]; 50 μM): 771478; Measure 2 (fluorescence) ([3]; 50 μM): 1100390; Measure 3 (fluorescence) ([3]; 50 μM): 923151; RFU specific ([3]; 50 μM): 925359 RFU"
COc1ccc(-c2cc(=O)c3c(O)cc(O)cc3o2)cc1O [Diosmetin],294.7,398660,411390,412940,407663,384300,327.9,448530,452660,451610,450933,427570,111.00,16337,14303,17066,15902,13895,9189,7751,"RLU 3 ([2]; 50 μM): 7857 RLU; RLU MEAN ([2]; 50 μM): 8266 RLU; RLU specific ([2]; 50 μM): 6258 RLU; activity at 50 µM ([2]; 6 h, 50 μM, read-out: % Activation (STAT3; IFNγ = 100%)): 50%"
"CC1O[C@@H](Oc2cc(O[C@@H]3OC(C)[C@H](O)C(O)C3O)c3c(=O)cc(-c4ccccc4)oc3c2)C(O)C(O)[C@H]1O (stereo partly drawn) [CR1, Chrysin-di-5,7-O-α-L-rhamnoside]",109.9,157870,169000,173010,166627,143263,120.8,175140,183630,183960,180910,157547,,,,,,,,,% Glucose uptake (Rosiglitazone = 100%) ([3]; 25 μM): 48.3%; Mean (fluorescence) ([3]; 25 μM): 426161; Measure 1 (fluorescence) ([3]; 25 μM): 291406; Measure 2 (fluorescence) ([3]; 25 μM): 358114; Measure 3 (fluorescence) ([3]; 25 μM): 628963; RFU specific ([3]; 25 μM): 419847 RFU; % Glucose uptake (Rosiglitazone = 100%) ([3]; 50 μM): 52.6%; Mean (fluorescence) ([3]; 50 μM): 463245; Measure 1 (fluorescence) ([3]; 50 μM): 619992; Measure 2 (fluorescence) ([3]; 50 μM): 595330; Measure 3 (fluorescence) ([3]; 50 μM): 174412; RFU specific ([3]; 50 μM): 456931 RFU
COc1cc(C2Oc3cc([C@H]4Oc5cc(O)cc(O)c5C(=O)[C@@H]4O)ccc3OC2CO)ccc1O (stereo partly drawn) [Silibinin],,,,,,,,,,,,,121.32,12389,11170,11210,11590,9755,12157,11885,% Activation (STAT3; IFNγ = 100%) ([2]; 50 μM): 120.55%; RLU 3 ([2]; 50 μM): 10540 RLU; RLU MEAN ([2]; 50 μM): 11527 RLU; RLU specific ([2]; 50 μM): 9692 RLU
O=c1cc(-c2ccccc2)oc2cc(O)cc(O)c12 [Chrysin],313.0,301630,274240,303950,293273,256010,293.5,273410,272580,285980,277323,240060,164.78,28031,22367,17504,22634,20627,27912,3531,% Activation (STAT3; IFNγ = 100%) ([2]; 50 μM): 111.11%; RLU 3 ([2]; 50 μM): 16304 RLU; RLU MEAN ([2]; 50 μM): 15916 RLU; RLU specific ([2]; 50 μM): 13908 RLU
"COc1ccc(-c2coc3cc(O)cc(O[C@@H]4O[C@@H](C)[C@H](O)[C@@H](O)[C@H]4O)c3c2=O)cc1 [BR2, Biochanin A 5-O-α-L-rhamnoside]",138.3,205410,202640,202940,203663,180300,163.2,237390,235850,235350,236197,212833,109.76,11157,10163,10660,10660,8825,7983,9023,% Activation (STAT3; IFNγ = 100%) ([2]; 50 μM): 93.74%; RLU 3 ([2]; 50 μM): 11110 RLU; RLU MEAN ([2]; 50 μM): 9372 RLU; RLU specific ([2]; 50 μM): 7537 RLU; % Glucose uptake (Rosiglitazone = 100%) ([3]; 25 μM): 77.5%; Mean (fluorescence) ([3]; 25 μM): 1027608; Measure 1 (fluorescence) ([3]; 25 μM): 998132; Measure 2 (fluorescence) ([3]; 25 μM): 1149619; Measure 3 (fluorescence) ([3]; 25 μM): 935073; RFU specific ([3]; 25 μM): 994522 RFU; % Glucose uptake (Rosiglitazone = 100%) ([3]; 50 μM): 129.0%; Mean (fluorescence) ([3]; 50 μM): 1688513; Measure 1 (fluorescence) ([3]; 50 μM): 1657600; Measure 2 (fluorescence) ([3]; 50 μM): 1788604; Measure 3 (fluorescence) ([3]; 50 μM): 1619334; RFU specific ([3]; 50 μM): 1655427 RFU
